“Also recorded” adds a separate entry of the source. Where two headings read alike, the source gives them in different places.
How the values were obtained:
pregnant rabbits = assay: Embryofetal development study, oral administration during organogenesis, rabbits; assay type: in vivo, rabbit
Experimental: The highest dose tested (50 mg/kg/day) was associated with plasma exposures (AUC) approximately 10 times that in humans at the MRHD.

[1] = Cardiac electrophysiology (QT interval); assay type: in vivo, human; details: single dose 4 times the recommended dose
clinical = details: human, in vivo
Experimental: Following oral administration of NURTEC ODT, rimegepant is absorbed with the maximum concentration at 1.5 hours.
The steady state volume of distribution of rimegepant is 120 L. Plasma protein binding of rimegepant is approximately 96%.
(§1) Following oral administration of [^14C]-rimegepant to healthy male subjects, 78% of the total radioactivity was recovered in feces and 24% in urine. Unchanged rimegepant is the major single component in excreted feces (42%) and urine (51%).

[2] = Excretion after oral [14C]-rimegepant; assay type: in vivo, human; details: oral [14C]-rimegepant, healthy male subjects
Text: as §1

[3] = Dedicated clinical study, pharmacokinetics in hepatic impairment; assay type: in vivo, human
Experimental: In a dedicated clinical study comparing the pharmacokinetics of rimegepant in subjects with mild, moderate, and severe hepatic impairment to that with normal subjects (healthy matched control), the exposure of rimegepant (Cmax and AUC) following a single 75 mg dose was approximately 2-fold higher in subjects with severe impairment (Child-Pugh class C).

[4] = Pharmacokinetics in other specific populations; assay type: in vivo, human; details: based on age, sex, race/ethnicity, body weight, or CYP2C9 genotype
CYP2C9 [5] = target: CYP2C9 (Homo sapiens, UniProt P11712); assay: In vitro enzyme study: substrate / metabolism; assay type: in vitro ADME; details: listed as Rimegepant
Text: (§2) Rimegepant is a substrate of CYP3A4 and CYP2C9 [see In Vivo Studies].

CYP3A4 [6] = target: T1, CYP3A4 (Homo sapiens, UniProt P08684); assay: In vitro enzyme study: substrate / metabolism; assay type: in vitro ADME
Text: as §2

CYP1A2 = assay: In vitro enzyme induction; assay type: in vitro ADME; details: at clinically relevant concentrations
Text: as §2

CYP2B6 = assay: In vitro enzyme induction; assay type: in vitro ADME; details: at clinically relevant concentrations
Text: as §2

CYP3A4 [7] = assay: In vitro enzyme induction; assay type: in vitro ADME; details: at clinically relevant concentrations
Text: as §2

OATP1B1 [8] = target: T2, OATP1B1 (Homo sapiens, UniProt Q9Y6L6); assay: In vitro transporter substrate study; assay type: in vitro ADME
Text: (§3) Considering its low renal clearance, rimegepant was not evaluated as a substrate of the OAT1, OAT3, OCT2, MATE1, or MATE2-K.

OATP1B3 = OATP1B3 (Homo sapiens, UniProt Q9NPD5); assay: In vitro transporter substrate study; assay type: in vitro ADME
Text: as §3

P-gp = P-gp (Homo sapiens, UniProt P08183); assay: In vitro transporter inhibition; assay type: in vitro ADME; details: at clinically relevant concentrations
BCRP = BCRP (Homo sapiens, UniProt Q9UNQ0); assay: In vitro transporter inhibition; assay type: in vitro ADME; details: at clinically relevant concentrations
OATP1B1 [9] = target: T2, OATP1B1; assay: In vitro transporter inhibition; assay type: in vitro ADME
CYP3A4 and CYP2C9 = assay: Dedicated drug interaction study with fluconazole (combined moderate CYP3A4 and CYP2C9 inhibitor); assay type: in vivo, human; details: 75 mg single dose with fluconazole
[10] = Pharmacokinetic interactions with other drugs (oral contraceptives, midazolam, sumatriptan); assay type: in vivo, human; details: with oral contraceptives (norelgestromin, ethinyl estradiol), midazolam, or sumatriptan
CYP2C9 [11] = assay: Pharmacogenomics: pharmacokinetics by CYP2C9 genotype; assay type: in vivo, human; details: CYP2C9 intermediate metabolizers (n=43) compared to normal metabolizers (N=72)
Text: CYP2C9 activity is reduced in individuals with genetic variants such as the CYP2C9*2 and CYP2C9*3 alleles. Rimegepant Cmax and AUC0-inf were similar in CYP2C9 intermediate metabolizers (i.e., *1/*2, *2/*2, *1/*3, n=43) as compared to normal metabolizers (i.e., *1/*1, N=72). Adequate PK data are not available from CYP2C9 poor metabolizers (i.e., *2/*3).

Tg.rasH2 mice = assay: Carcinogenesis study, oral, 26 weeks, Tg.rasH2 mice; assay type: in vivo, mouse; details: oral 0, 10, 100, or 300 mg/k/day for 26 weeks
rats = assay: Carcinogenesis study, oral, 91-100 weeks, rats; assay type: in vivo, rat
[12] = tested on: bacterial reverse-mutation; assay: Bacterial reverse-mutation assay (in vitro); assay type: cell-based
Text: (§4) Rimegepant was negative in in vitro (bacterial reverse-mutation, chromosomal aberration in Chinese hamster ovary cells) and in vivo (rat micronucleus) assays.

[13] = tested on: Chinese hamster ovary cells; assay: Chromosomal aberration assay (in vitro); assay type: cell-based
Text: as §4

CYP3A4 [14] = target: T1, CYP3A4; assay: Dedicated drug interaction study with rifampin (strong CYP3A4 inducer); assay type: in vivo; set-up: endogenous in cells; host or cells: in vivo, endogenous enzyme of the study subjects; details: 75 mg single dose with rifampin at steady state
Experimental: (§5) No dedicated drug interaction study was conducted to assess the effect of concomitant administration of a moderate or weak inducer of CYP3A4 on the pharmacokinetics of rimegepant.

CYP3A4 [15] = target: T1, CYP3A4; assay: Expected interactions with moderate or weak CYP3A4 inhibitors and inducers; assay type: in vivo; set-up: endogenous in cells; host or cells: in vivo, endogenous enzyme of the study subjects
Experimental: The concomitant administration of rimegepant with a moderate inhibitor of CYP3A4 may increase rimegepant exposures (AUC) by less than 2-fold [see Drug Interactions].
as §5

T1 sequence (P08684 whole entry): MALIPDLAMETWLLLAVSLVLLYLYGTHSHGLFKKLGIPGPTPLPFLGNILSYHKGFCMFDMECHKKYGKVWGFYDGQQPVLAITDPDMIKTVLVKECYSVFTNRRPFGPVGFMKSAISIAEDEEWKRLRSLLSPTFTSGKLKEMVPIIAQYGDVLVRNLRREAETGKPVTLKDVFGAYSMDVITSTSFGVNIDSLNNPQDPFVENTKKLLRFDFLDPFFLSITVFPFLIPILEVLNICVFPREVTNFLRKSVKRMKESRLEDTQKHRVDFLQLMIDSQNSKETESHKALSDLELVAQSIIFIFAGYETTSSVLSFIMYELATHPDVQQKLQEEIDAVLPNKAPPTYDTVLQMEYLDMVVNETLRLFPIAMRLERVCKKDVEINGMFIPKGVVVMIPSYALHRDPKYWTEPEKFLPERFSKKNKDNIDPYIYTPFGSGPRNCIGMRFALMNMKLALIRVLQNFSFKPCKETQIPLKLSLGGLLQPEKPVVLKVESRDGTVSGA
T2 sequence (Q9Y6L6 whole entry): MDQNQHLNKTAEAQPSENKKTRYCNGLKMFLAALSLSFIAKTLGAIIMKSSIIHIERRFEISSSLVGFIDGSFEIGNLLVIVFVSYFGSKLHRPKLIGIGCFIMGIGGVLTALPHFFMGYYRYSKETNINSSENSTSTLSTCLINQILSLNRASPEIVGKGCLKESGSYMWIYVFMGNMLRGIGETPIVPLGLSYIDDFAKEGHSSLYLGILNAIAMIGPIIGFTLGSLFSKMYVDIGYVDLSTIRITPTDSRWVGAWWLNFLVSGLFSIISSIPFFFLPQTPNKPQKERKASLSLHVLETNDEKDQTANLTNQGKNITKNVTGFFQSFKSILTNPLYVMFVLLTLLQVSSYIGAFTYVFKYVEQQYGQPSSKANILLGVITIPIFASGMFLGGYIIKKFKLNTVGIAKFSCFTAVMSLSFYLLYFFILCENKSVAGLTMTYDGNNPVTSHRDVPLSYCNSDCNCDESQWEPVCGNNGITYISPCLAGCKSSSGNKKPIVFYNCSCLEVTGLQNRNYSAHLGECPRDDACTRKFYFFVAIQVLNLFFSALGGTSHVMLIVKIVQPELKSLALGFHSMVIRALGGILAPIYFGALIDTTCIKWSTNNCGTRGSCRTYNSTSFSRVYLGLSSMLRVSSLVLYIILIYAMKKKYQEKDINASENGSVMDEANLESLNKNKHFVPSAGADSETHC
Sequence of CYP2C9 (Homo sapiens, UniProt P11712) (P11712 whole entry): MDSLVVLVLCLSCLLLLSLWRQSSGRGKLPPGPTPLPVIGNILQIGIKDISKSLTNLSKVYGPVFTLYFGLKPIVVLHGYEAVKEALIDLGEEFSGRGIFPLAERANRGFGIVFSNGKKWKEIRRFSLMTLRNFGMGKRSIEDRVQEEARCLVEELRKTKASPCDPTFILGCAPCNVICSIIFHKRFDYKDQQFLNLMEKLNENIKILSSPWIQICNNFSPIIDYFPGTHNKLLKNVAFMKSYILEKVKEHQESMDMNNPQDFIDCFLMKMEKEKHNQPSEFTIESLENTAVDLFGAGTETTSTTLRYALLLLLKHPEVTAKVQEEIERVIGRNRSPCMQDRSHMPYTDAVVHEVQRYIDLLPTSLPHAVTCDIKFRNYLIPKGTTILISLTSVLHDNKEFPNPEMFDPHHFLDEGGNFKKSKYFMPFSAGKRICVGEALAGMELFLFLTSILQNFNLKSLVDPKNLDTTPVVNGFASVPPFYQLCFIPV
Sequence of BCRP (Q9UNQ0 whole entry): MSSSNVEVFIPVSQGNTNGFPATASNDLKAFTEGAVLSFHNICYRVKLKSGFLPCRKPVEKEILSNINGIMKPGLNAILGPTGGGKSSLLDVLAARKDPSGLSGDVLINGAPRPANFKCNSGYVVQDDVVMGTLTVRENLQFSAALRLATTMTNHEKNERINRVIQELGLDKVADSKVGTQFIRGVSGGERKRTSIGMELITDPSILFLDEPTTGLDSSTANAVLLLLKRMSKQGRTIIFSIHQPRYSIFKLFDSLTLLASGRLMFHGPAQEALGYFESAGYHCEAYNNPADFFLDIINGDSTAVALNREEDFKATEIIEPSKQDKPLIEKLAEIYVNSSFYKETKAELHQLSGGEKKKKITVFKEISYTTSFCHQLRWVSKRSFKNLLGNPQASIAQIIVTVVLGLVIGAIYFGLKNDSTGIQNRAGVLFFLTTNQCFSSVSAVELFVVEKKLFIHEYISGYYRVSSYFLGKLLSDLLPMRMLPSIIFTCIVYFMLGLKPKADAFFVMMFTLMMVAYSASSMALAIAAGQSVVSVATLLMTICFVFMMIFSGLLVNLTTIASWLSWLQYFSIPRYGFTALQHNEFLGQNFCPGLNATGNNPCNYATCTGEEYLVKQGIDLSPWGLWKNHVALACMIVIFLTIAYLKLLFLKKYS
Sequence of OATP1B3 (Q9NPD5 whole entry): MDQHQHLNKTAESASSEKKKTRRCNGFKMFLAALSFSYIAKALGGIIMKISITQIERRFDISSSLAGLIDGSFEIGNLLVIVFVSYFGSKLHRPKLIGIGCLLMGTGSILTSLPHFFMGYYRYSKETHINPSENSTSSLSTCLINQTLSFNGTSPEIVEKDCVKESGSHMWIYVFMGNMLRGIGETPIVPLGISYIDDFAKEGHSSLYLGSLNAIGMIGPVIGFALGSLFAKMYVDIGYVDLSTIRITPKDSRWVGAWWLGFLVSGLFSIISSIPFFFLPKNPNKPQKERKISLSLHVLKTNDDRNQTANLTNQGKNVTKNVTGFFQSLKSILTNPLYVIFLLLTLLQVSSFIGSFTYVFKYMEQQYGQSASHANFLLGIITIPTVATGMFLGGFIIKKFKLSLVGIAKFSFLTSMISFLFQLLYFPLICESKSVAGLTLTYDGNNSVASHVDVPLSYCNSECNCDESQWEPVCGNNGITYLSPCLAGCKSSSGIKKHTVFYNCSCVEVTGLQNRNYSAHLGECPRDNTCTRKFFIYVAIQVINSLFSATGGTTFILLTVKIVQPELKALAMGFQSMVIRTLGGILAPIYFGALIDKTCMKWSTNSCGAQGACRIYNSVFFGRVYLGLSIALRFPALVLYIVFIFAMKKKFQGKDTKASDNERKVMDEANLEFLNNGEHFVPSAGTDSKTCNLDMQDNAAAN
Sequence of P-gp (P08183 whole entry): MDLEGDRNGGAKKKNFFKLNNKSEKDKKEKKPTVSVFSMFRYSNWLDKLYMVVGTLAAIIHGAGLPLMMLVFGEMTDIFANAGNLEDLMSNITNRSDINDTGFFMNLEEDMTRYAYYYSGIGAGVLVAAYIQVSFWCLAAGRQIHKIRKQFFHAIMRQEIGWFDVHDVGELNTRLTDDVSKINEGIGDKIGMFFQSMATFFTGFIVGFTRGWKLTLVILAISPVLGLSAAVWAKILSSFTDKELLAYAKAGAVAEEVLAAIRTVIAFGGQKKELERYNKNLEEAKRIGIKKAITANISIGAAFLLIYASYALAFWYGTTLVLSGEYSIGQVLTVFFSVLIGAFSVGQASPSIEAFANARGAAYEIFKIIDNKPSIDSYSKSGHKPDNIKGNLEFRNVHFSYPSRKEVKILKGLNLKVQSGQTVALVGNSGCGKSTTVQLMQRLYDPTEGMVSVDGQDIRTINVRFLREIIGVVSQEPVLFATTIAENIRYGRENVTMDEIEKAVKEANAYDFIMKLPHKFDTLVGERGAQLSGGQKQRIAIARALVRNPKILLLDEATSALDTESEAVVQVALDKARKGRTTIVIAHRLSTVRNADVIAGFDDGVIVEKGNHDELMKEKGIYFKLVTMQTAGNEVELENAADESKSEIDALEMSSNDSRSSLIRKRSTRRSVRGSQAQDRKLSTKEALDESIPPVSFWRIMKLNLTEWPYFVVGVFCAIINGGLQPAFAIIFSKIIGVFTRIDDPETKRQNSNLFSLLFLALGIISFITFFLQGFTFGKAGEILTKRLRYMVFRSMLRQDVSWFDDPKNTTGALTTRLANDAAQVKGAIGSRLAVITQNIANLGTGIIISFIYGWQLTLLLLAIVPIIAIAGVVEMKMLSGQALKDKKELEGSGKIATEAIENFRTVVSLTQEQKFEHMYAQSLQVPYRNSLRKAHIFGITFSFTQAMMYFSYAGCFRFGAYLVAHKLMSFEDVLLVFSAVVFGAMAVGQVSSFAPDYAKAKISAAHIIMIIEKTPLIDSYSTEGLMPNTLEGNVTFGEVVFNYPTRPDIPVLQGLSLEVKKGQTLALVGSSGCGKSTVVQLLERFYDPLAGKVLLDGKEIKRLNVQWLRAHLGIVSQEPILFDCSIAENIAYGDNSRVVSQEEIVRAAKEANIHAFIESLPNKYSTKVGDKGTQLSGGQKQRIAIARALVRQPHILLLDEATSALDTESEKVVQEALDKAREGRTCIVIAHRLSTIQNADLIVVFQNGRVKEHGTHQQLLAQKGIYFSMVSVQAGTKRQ

Structure (SMILES): N[C@@H]1c2cccnc2[C@H](OC(=O)N2CCC(n3c(=O)[nH]c4ncccc43)CC2)CC[C@H]1c1cccc(F)c1F [rimegepant, (5S,6S,9R)-5-amino-6-(2,3-difluorophenyl)-6,7,8,9-tetrahydro-5H-cyclohepta[b]pyridin-9-yl 4-(2-oxo-2,3-dihydro-1H-imidazo[4,5-b]pyridin-1-yl)-1-piperidinecarboxylate]
- effects on embryofetal development (pregnant rabbits; 0, 10, 25, or 50 mg/kg/day oral): no adverse effects on embryofetal development
- plasma exposure (AUC) relative to humans at the MRHD (pregnant rabbits; highest dose tested (50 mg/kg/day)): approximately 10 times
- QT interval prolongation [1]: does not prolong the QT interval to any clinically relevant extent
- eliminated in unchanged form (clinical): ~77 % of the dose
- half-life (clinical): ~11 h
- major metabolites (i.e., >10%) in plasma (clinical): no major metabolites
- bioavailability (clinical; po): ~64%
- unchanged rimegepant in excreted feces [2]: 42%
- unchanged rimegepant in excreted urine [2]: 51%
- difference in exposure vs normal hepatic function ([3]; mild (Child-Pugh class A) and moderate (Child-Pugh class B) hepatic impairment): no clinically meaningful differences
- exposure (Cmax and AUC) higher than in normal subjects ([3]; single 75 mg dose, severe hepatic impairment (Child-Pugh class C)): approximately 2 fold
- differences in pharmacokinetics [4]: No clinically significant differences
- substrate of / metabolized by CYP2C9 (CYP2C9 [5]): substrate
- substrate of / metabolized by CYP3A4 (CYP3A4 [6]): moderately sensitive substrate
- substrate of / metabolized by CYP3A4 (CYP3A4 [6]; listed as Rimegepant): primarily metabolized; also recorded: substrate
- induction of CYP1A2 (CYP1A2): not an inducer
- induction of CYP2B6 (CYP2B6): not an inducer
- induction of CYP3A4 (CYP3A4 [7]): not an inducer
- substrate of OATP1B1 (OATP1B1 [8]): not a substrate
- substrate of OATP1B3 (OATP1B3): not a substrate
- inhibition of P-gp (P-gp): not an inhibitor
- inhibition of BCRP (BCRP): not an inhibitor
- inhibition of OATP1B1 (OATP1B1 [9]): weak inhibitor
- effect on rimegepant Cmax (CYP3A4 and CYP2C9): no relevant effect
- increase of rimegepant AUC (CYP3A4 and CYP2C9): 1.8 fold
- pharmacokinetic interactions [10]: No significant pharmacokinetic interactions
- Cmax and AUC0-inf (CYP2C9 [11]): similar
- drug-induced tumors (Tg.rasH2 mice): no evidence of drug-induced tumors
- plasma exposure (AUC) relative to humans at the MRHD of 75 mg/day (rats; highest dose tested (45 mg/kg/day)): approximately 30 times
- drug-induced tumors (rats; oral 0, 5, 20, or 45 mg/kg/day for 91-100 weeks): no evidence of drug-induced tumors
- mutagenesis, bacterial reverse-mutation [12]: negative
- mutagenesis, chromosomal aberration [13]: negative
- decrease of rimegepant AUC (CYP3A4 [14]): 80%
- decrease of rimegepant Cmax (CYP3A4 [14]): 64%
- increase of rimegepant exposures (AUC) (CYP3A4 [15]; with a moderate inhibitor of CYP3A4, stated as 'may increase'): less than 2 fold
- impact on rimegepant exposures (CYP3A4 [15]; with a weak inhibitor of CYP3A4, no dedicated study conducted): not expected to have a clinically significant impact
- effect on rimegepant exposure (CYP3A4 [15]; with moderate inducers of CYP3A4, no dedicated study conducted): significant reduction in rimegepant exposure

From US20230108049A1, “ORAL FAST-DISPERSING DOSAGE FORM OF RIMEGEPANT” (BIOHAVEN PHARMACEUTICAL HOLDING COMPANY LTD., priority 2020, published 2023)
